# Experimental data as given in publication PMC9062088 (RSC Advances, 2019).
# How the values were obtained:
# [1] = biological target: T1, human TyrRS (Homo sapiens, UniProt P54577); experiment: ATP–pyrophosphate exchange assay; type: biochemical; details: for remaining activity at 100 µM: read-out: Enzyme activity@100 μM (%); for inhibitory effect on human TyrRS (SAR statement in words): 100 μM screening data of Tables 1 and 2
# T1 sequence (P54577 1-341): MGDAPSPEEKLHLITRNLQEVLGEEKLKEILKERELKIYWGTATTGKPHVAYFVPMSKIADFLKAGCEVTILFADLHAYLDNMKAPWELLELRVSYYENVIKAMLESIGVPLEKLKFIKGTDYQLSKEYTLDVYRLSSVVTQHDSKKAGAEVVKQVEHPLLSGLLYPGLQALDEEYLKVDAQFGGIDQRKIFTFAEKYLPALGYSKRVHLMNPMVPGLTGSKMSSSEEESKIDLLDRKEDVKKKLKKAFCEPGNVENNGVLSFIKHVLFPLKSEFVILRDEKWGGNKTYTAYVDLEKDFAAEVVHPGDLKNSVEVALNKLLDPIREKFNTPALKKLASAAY
# [2] = test system: HeLa cells; experiment: Detection of DNA damage in cells; type: cell-based, human; details: pre-treated 24 h (0.37-30 μM), then 30 μM cisplatin 24 h, immunoblot
# [3] = test system: HeLa cells; experiment: Cellular localization of TyrRS; type: cell-based, human; details: HeLa cells, 1.1, 3.3, 10 or 30 μM, 8 h, immunoblot
remaining activity at 100 µM [1] [%],inhibitory effect on human TyrRS (SAR statement in words) [1],Compound,level of γ-H2A.X (DNA damage) [2],TyrRS nuclear localization [3]
76.4,–,COc1cc(O)c(Sc2ccc(F)cc2)c2oc(-c3ccccc3)cc(=O)c12 [Compound 16],–,–
85.3,substantially diminished activity,CC(C)(C)c1ccc(Sc2c(O)c(Sc3ccc(C(C)(C)C)cc3)c3oc(-c4ccccc4)cc(=O)c3c2O)cc1 [Compound 9],–,–
81.9,–,O=c1cc(-c2ccccc2)oc2c(Sc3ccccc3O)c(O)cc(O)c12 [Compound 29],–,–
–,–,"O=c1cc(-c2ccccc2)oc2c(Sc3cccc(O)c3)c(O)c(Sc3cccc(O)c3)c(O)c12 [Compound 11, 5,7-dihydroxy-6,8-bis((3-hydroxyphenyl)thio)-2-phenyl-4H-chromen-4-one]",dramatically decreased,dramatically promoted the nuclear localization of TyrRS
75.9,substantially diminished activity,Cc1ccccc1Sc1c(O)c(Sc2ccccc2C)c2oc(-c3ccccc3)cc(=O)c2c1O [Compound 8],–,–
73.8,–,COc1cc(O)c(Sc2ccccc2F)c2oc(-c3ccccc3)cc(=O)c12 [Compound 18],–,–
68.5,–,COc1cc(O)c(Sc2cccc(F)c2)c2oc(-c3ccccc3)cc(=O)c12 [Compound 15],–,–
88.9,substantially diminished activity,COc1ccccc1Sc1c(O)c(Sc2ccccc2OC)c2oc(-c3ccccc3)cc(=O)c2c1O [Compound 3],–,–
73.9,–,COc1ccc(Sc2c(O)cc(OC)c3c(=O)cc(-c4ccccc4)oc23)cc1 [Compound 21],–,–
93.2,–,O=c1cc(-c2ccccc2)oc2c(Sc3cccc(O)c3)c(O)cc(O)c12 [Compound 26],–,–
